Laboratory results published in patent publication US11578009B2, “Urea-based blend composition and method for the manufacture thereof” (YARA INTERNATIONAL ASA, priority 2018, dated 2023).

Columns and labels:
[1] = nBTPT stability on YaraVera Amidas (UAS) during storage, HPLC analysis of nBTPT content; assay type: physicochemical; conditions: for Stabilizing effect on nBTPT on UAS: Experiment 4, MgSO4/MgO combinations, FIG. 4
Protocol: For lab scale experiments, 1.2 kg of solid fertilizer material was added to a lab scale drum. […] A residence time of 10 minutes was applied and the rotating speed of the drum was consequently the same in each experiment. […] Before use, the moisture-repellent coating was preheated to 80° C. Larger scale experiments with amounts up to 40 kg of fertilizer material were performed in a concrete mixer. The samples were stored under several conditions, dependent on the type of samples: • Bagged at room temperature (18-25° C.) • Bagged at 40° C. • Open to air at room temperature (18-25° C.) 3.

pH of MgSO4 grades = assay type: physicochemical; conditions: MgSO4 grade

SMILES | Stabilizing effect on nBTPT on UAS ([1]; 462 ppm nBTPT) | pH (pH of MgSO4 grades) | other results
[O]=[Mg] [MgO, magnesium oxide, reference compound] | more effective than CaO | – | –
O=S(=O)([O-])[O-].[Mg+2] [MgSO4 99.5%] | – | 8.5 | –
O=S(=O)([O-])[O-].[Mg+2] [MgSO4 99.999%] | – | 6.1 | –
O=S(=O)([O-])[O-].[Mg+2] [MgSO4, magnesium sulphate] | little effect | – | Stabilizing effect on nBTPT in the presence of UAS ([1]; Experiment 2, open to air at room temperature 40 days (FIG. 2A) and in bags at 40° C. 8 days (FIG. 2B), 462 ppm nBTPT): comparable with the effect of the prior art compound (CaO); Stabilizing effect at more than 1 weight % of magnesium sulphate ([1]; more than 1 weight % in the composition): did not produce a proportionally better stabilizing effect
O=S(=O)([O-])[O-].[Na+].[Na+] [Na2SO4, reference compound] | – | – | Stability of nBTPT on YaraVera Amidas product ([1]; Experiment 3, open plastic containers at room temperature for 21 days, 462 ppm nBTPT, FIG. 3): negative effect
